{"source": "ChEMBL document CHEMBL1158190", "about": "“New Tetracyclic Sesterterpenes from Cydonia vulgaris” (J Nat Prod, 1996)", "note": "Active and inactive are the calls of the source. The calls are words filed in the database; no cut-off is given here."}
{"system": "Human immunodeficiency virus 1", "experiment": "Antiviral activity against 10 CCID50 units of HIV1 infected in human C8166 cells at 2.5 ug/mL after 5 to 7 days", "type": "functional, organism-based"}
{"smiles": "CC(=O)OC[C@]1(O)CC[C@@H]2[C@@]3(C)CCCC(C)(C)[C@@H]3CC[C@@]2(C)[C@H]1CC(O)C1=CC(=O)OC1OC(=O)/C=C/c1ccccc1", "note": "(some centres undefined)", "Activity": "inactive"}
{"smiles": "CC1(C)CCC[C@]2(C)[C@H]3CC[C@@](O)(CO)[C@H](CC(O)C4=CC(=O)OC4OC(=O)/C=C/c4ccccc4)[C@]3(C)CC[C@@H]12", "note": "(some centres undefined)", "Activity": "inactive"}
{"smiles": "CC(=O)OC[C@]1(O)CC[C@@H]2[C@@]3(C)CCCC(C)(C)[C@@H]3CC[C@@]2(C)[C@H]1CC(O)C1=CC(=O)OC1OC(C)=O", "note": "(some centres undefined)", "Activity": "inactive"}
{"smiles": "CC(=O)OC1OC(=O)C=C1C(O)C[C@H]1[C@](O)(CO)CC[C@@H]2[C@@]3(C)CCCC(C)(C)[C@@H]3CC[C@]21C", "note": "(some centres undefined)", "Activity": "inactive"}
